This note sets out measurements from ChEMBL document CHEMBL1201862, “PubChem BioAssay data set” (2004).

Some test systems named below: CCRF-CEM; HCC 2998; SK-OV-3; NCI-H460; OVCAR-8; U-251; COLO 205; HCT-15; Malme-3M; NCI-H522; A549; SK-MEL-5; IGROV-1; OVCAR-3; HL-60; A498; TK-10; SW-620; SF-295.
What all share (experiment): NCI tumour cell line growth inhibition, 48 h

Structures are written as SMILES.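 Results reflect a 48-hour exposure of cells in 96-well plates to compound at five concentrations. GI50 is the concentration that inhibits growth by half.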 Activity calls are given as the source filed them. Cut-off read from the data, not from the text of the source: active = GI50 up to about 1.1 µM and inactive = higher.

In the case of `Cc1ccc(S(=O)(=O)NC(=O)C2(Br)S(=O)(=O)OCCOS2(=O)=O)cc1`, the GI50 in the test on CCRF-CEM, with HCC 2998, in the test on SK-OV-3, with NCI-H460, in the test with OVCAR-8 and with U-251 was > 100 µM (inactive) in each case. In addition, the GI50 with COLO 205 is > 100 µM (inactive); in the test with HCT-15, greater than 100 µM; in the test with Malme-3M, > 100 µM (inactive); with NCI-H522 it was > 100 µM (inactive); in the test with A549 it was > 100 µM (inactive); in the test with SK-MEL-5, > 100 µM (inactive). Besides, the GI50 with IGROV-1, in the test with OVCAR-3, in the test with HL-60, with A498 and in the test on TK-10 was > 100 µM (inactive) each time.

`COC(=O)C(=O)C(C(=O)C(=O)Nc1ccccc1C(N)=O)c1nc2ccc([N+](=O)[O-])cc2nc1O` (centres undefined): the GI50 in the test with CCRF-CEM, in the test on HCC 2998, with SK-OV-3, in the test with NCI-H460, in the test on OVCAR-8 and in the test on U-251 was > 100 µM (inactive) each time. The GI50 is > 100 µM (inactive) in the test on SW-620; > 100 µM (inactive) in the test on COLO 205; greater than 100 µM with HCT-15; > 100 µM (inactive) in the test with Malme-3M; > 100 µM (inactive) in the test with NCI-H522; > 100 µM (inactive) in the test with A549. Besides, the GI50 in the test with SK-MEL-5, in the test with IGROV-1, in the test on HL-60, in the test with A498, in the test on SF-295 and in the test on TK-10 was > 100 µM (inactive) in each case.

Turning to `Cc1c2ccncc2c(C)c2c1[nH]c1ccc(OC(C)C)cc12`, the GI50 in the test with CCRF-CEM was 1.15 µM (inactive); in the test with HCC 2998, 2.03 µM (inactive); in the test with SK-OV-3, 1.42 µM (inactive); in the test with NCI-H460, 1.03 µM (active); with OVCAR-8, 1.04 µM (active); with U-251 it was 1.38 µM (inactive). Besides, the GI50 is 0.547 µM (active) with SW-620; 1.32 µM (inactive) with COLO 205; 0.984 µM in the test on HCT-15; 1.58 µM (inactive) with Malme-3M; 1.63 µM (inactive) with NCI-H522; 1.52 µM (inactive) with A549. Also, the GI50 in the test with SK-MEL-5 was 1.77 µM (inactive); in the test on IGROV-1, 1.43 µM (inactive); in the test with OVCAR-3 it was 1.61 µM (inactive); in the test with HL-60, 1.84 µM (inactive); with A498, 1.47 µM (inactive); in the test with SF-295 it was 1.36 µM (inactive). Also, the GI50 in the test on TK-10 is 1.91 µM (inactive).

Turning to `Nc1c(C(=O)NC23CC4CC(CC(C4)C2)C3)[n+]([O-])c2ccccc2[n+]1[O-]`, the GI50 with CCRF-CEM, with HCC 2998, in the test with SK-OV-3, with NCI-H460, with OVCAR-8 and in the test on U-251 was > 100 µM (inactive) throughout. Further, the GI50 in the test with SW-620 was > 100 µM (inactive); with COLO 205, > 100 µM (inactive); in the test with HCT-15 it was greater than 100 µM; with Malme-3M, > 100 µM (inactive); in the test with NCI-H522, > 100 µM (inactive); with A549, > 100 µM (inactive). The GI50 in the test with SK-MEL-5, in the test with IGROV-1, in the test on OVCAR-3, in the test with HL-60, in the test with A498 and in the test on SF-295 was > 100 µM (inactive) throughout. Further, in the test with TK-10, the GI50 was > 100 µM (inactive).

`O=C(N/N=C/c1ccccc1O)c1cccc([N+](=O)[O-])c1`: the GI50 in the test with CCRF-CEM is 3.03 µM (inactive); in the test on HCC 2998 it was 30.5 µM (inactive); in the test with SK-OV-3, 15 µM (inactive); in the test on NCI-H460 it was 4.68 µM (inactive); with OVCAR-8 it was 6.95 µM (inactive); in the test with U-251, 26.2 µM (inactive). The GI50 with SW-620 is 4.54 µM (inactive); in the test on COLO 205, 20.9 µM (inactive); in the test on HCT-15, 6.59 µM; in the test on Malme-3M, 30.8 µM (inactive); in the test with NCI-H522, 32.7 µM (inactive); with A549, 31 µM (inactive). Further, the GI50 in the test with SK-MEL-5 is 9.98 µM (inactive); in the test with IGROV-1, 13.7 µM (inactive); in the test with OVCAR-3 it was 1.71 µM (inactive); in the test with HL-60, 3.01 µM (inactive); with A498, 76.7 µM (inactive); in the test on SF-295, 19.7 µM (inactive). Moreover, in the test on TK-10, the GI50 was 30.9 µM (inactive).

As to `COc1ccc(-c2cc(=O)c3c(O)c(OC)c(O)c(OC)c3o2)cc1OC`, the GI50 with CCRF-CEM was 33.6 µM (inactive); in the test on HCC 2998, > 100 µM (inactive); in the test on SK-OV-3, 80 µM (inactive); with OVCAR-8 it was > 100 µM (inactive); with U-251 it was 49.9 µM (inactive); in the test on SW-620, > 100 µM (inactive). Further, the GI50 in the test on COLO 205 is 92.3 µM (inactive); in the test with HCT-15 it was 63.7 µM; in the test with Malme-3M it was > 100 µM (inactive); in the test with NCI-H522, 12 µM (inactive); with A549, 72.1 µM (inactive); with SK-MEL-5 it was > 100 µM (inactive). The GI50 was 84.3 µM (inactive) with IGROV-1, 41.3 µM (inactive) in the test on HL-60, 36.4 µM (inactive) in the test with A498 and > 100 µM (inactive) in the test on SF-295.

For `CSc1ccc2c(cc1=O)C(NC(=O)c1ccc(C#N)cc1)CCc1cc(O)c(O)c(O)c1-2` (centres undefined), the GI50 is 9.66 µM (inactive) in the test on CCRF-CEM; 21.8 µM (inactive) in the test on HCC 2998; 27.4 µM (inactive) in the test with SK-OV-3; 27.6 µM (inactive) in the test on NCI-H460; 30.5 µM (inactive) in the test with OVCAR-8; 19.5 µM (inactive) in the test with U-251. The GI50 in the test on SW-620 is 19.5 µM (inactive); in the test on COLO 205 it was 19.6 µM (inactive); in the test with HCT-15 it was 19 µM; in the test on Malme-3M, > 100 µM (inactive); with NCI-H522 it was 15.7 µM (inactive); in the test with A549, 44.4 µM (inactive). Also, the GI50 in the test on SK-MEL-5 was 15.4 µM (inactive); in the test with OVCAR-3, 36.6 µM (inactive); in the test with HL-60, 20.1 µM (inactive); in the test with A498, 44.5 µM (inactive); with SF-295, 27.2 µM (inactive); in the test with TK-10, 63 µM (inactive).

For `N[C@H](C(=O)O)[C@@H]1CC(Br)=NO1`, the GI50 was 59.6 µM (inactive) in the test with HCC 2998; 69.5 µM (inactive) with SK-OV-3; 42.2 µM (inactive) with NCI-H460; 85.5 µM (inactive) in the test with OVCAR-8; > 100 µM (inactive) in the test on U-251; 48.6 µM (inactive) in the test on SW-620. Moreover, the GI50 in the test with COLO 205 is 71.3 µM (inactive); in the test on HCT-15, 54.1 µM; with Malme-3M, > 100 µM (inactive); with NCI-H522 it was 77.4 µM (inactive); in the test with A549, 87.5 µM (inactive); with SK-MEL-5, 54.5 µM (inactive). The GI50 in the test with OVCAR-3 was > 100 µM (inactive); in the test with HL-60, > 100 µM (inactive); in the test with A498, > 100 µM (inactive); in the test on SF-295 it was 73.6 µM (inactive); with TK-10, 47.1 µM (inactive).

Consider `O=c1nc(N2CCCC2)nc(N2CCCC2)s1`, for which the GI50 in the test on CCRF-CEM, in the test on HCC 2998, in the test with SK-OV-3, in the test with NCI-H460, with OVCAR-8 and in the test with U-251 was > 100 µM (inactive) in each case. In addition, the GI50 with SW-620 is > 100 µM (inactive); in the test with HCT-15, greater than 100 µM; in the test on Malme-3M, > 100 µM (inactive); in the test with NCI-H522, > 100 µM (inactive); with A549, > 100 µM (inactive); in the test on SK-MEL-5, > 100 µM (inactive). Also, the GI50 in the test with IGROV-1, with HL-60, with A498, with SF-295 and in the test with TK-10 was > 100 µM (inactive) each time.

As to `C=CCn1cc(C(=O)NC(=O)NCCCCCOC(=O)CCCCCCCCCCC(=O)OCCCCCNC(=O)NC(=O)c2cn(CC=C)c(=O)n(C)c2=O)c(=O)n(C)c1=O`, the GI50 with CCRF-CEM, in the test with HCC 2998, with SK-OV-3, with NCI-H460, in the test on OVCAR-8 and with U-251 was > 100 µM (inactive) throughout. In addition, the GI50 in the test with SW-620 was > 100 µM (inactive); in the test on COLO 205 it was > 100 µM (inactive); in the test with HCT-15 it was greater than 100 µM; in the test with Malme-3M, > 100 µM (inactive); with NCI-H522, > 100 µM (inactive); with A549, > 100 µM (inactive). The GI50 in the test with SK-MEL-5, with IGROV-1, in the test on OVCAR-3, in the test on HL-60, in the test with A498 and with TK-10 was > 100 µM (inactive) in each case.

In the case of `C1=CC2CCC1CN2CCC1CNc2ccccc21` (centres undefined), the GI50 in the test with CCRF-CEM, in the test on HCC 2998, with SK-OV-3, in the test with OVCAR-8, with U-251 and in the test on SW-620 was > 100 µM (inactive) throughout. In addition, the GI50 is > 10 µM (inactive) in the test on COLO 205; > 100 µM (inactive) in the test on Malme-3M; > 100 µM (inactive) with NCI-H522; > 100 µM (inactive) in the test on A549; > 100 µM (inactive) with IGROV-1; > 100 µM (inactive) with OVCAR-3. Further, the GI50 in the test with HL-60, with A498, in the test with SF-295 and in the test on TK-10 was > 100 µM (inactive) throughout.
